Holding throughout (format): in vivo
Assay [1] concerns 3rd instar larvae of Helicoverpa armigera. To be noted: for insecticidal efficacy against the 3rd instar larvae of Helicoverpa armigera (in words): hydrochloride alone; for Number of dead insects/Number of test insects: 4 days. An excerpt: Each insecticidal protein solution obtained was admixed with prumycin hydrochloride prepared in Production Example 1 or kanosamine hydrochloride (Sigma-Aldrich Japan, LLC.) at a prescribed concentration to prepare a solution containing the insecticidal protein and prumycin hydrochloride or kanosamine hydrochloride. The obtained solution was admixed with artificial feed (Insecta LFS (manufactured by Nosan Corporation)) as shown in Tables 10 to 13 so that the content of each insecticidal protein was 0.063 to 8 μg/g of the artificial feed and the content of prumycin hydrochloride or kanosamine hydrochloride was 10 μg/g of the artificial feed. In this way, each artificial feed containing the insecticidal protein and prumycin hydrochloride or kanosamine hydrochloride was prepared. In addition, the above-described insecticidal protein solution, prumycin hydrochloride, or kanosamine hydrochloride alone was admixed with the artificial feed as shown in Tables 10 to 13 so that the content of each insecticidal protein was 0.063 to 8 μg/g of the artificial feed or the content of prumycin hydrochloride or kanosamine hydrochloride was […] of the artificial feed, respectively. In this way, each artificial feed containing the insecticidal protein, prumycin hydrochloride, or kanosamine hydrochloride alone was prepared. Each artificial feed containing or free of each substance thus obtained was placed on a petri dish (35 mm in diameter and 10 mm in height), and one 3rd instar larva of Helicoverpa armigera reared in a rearing room at 25° C. was released into each petri dish (10 replicates). Each petri dish was closed and kept at 25° ° C. for 4 days.
The number of dead insects was then macroscopically examined by observing the inside of each petri dish, and the LC50 value was calculated by the probit method. Next, based on the following equation, the ratio of the test plot without prumycin hydrochloride or kanosamine hydrochloride to the test plot with prumycin hydrochloride or kanosamine hydrochloride was calculated to determine the increase in insecticidal activity when prumycin hydrochloride or kanosamine hydrochloride was added.

Assay [2] relates to 3rd instar larvae of Spodoptera litura. As to the kind of experiment: Test of efficacy against 3rd instar larvae of Spodoptera litura (dried Bt cultures mixed into artificial feed). To be noted: for Measured insecticidal rate (%): agent alone, 2 μg/g Feed, 25° C., 5 days; for insecticidal efficacy against the 3rd instar larvae of Spodoptera litura (in words): alone, application concentration of 2 μg/g feed. The method, then:
A suspension of dried Btk culture or dried Bta culture was prepared by adding distilled water to the dried Btk culture or dried Bta culture prepared in Preparation Example 1. This suspension was admixed with prumycin hydrochloride prepared in Production Example 1 or kanosamine hydrochloride (Sigma-Aldrich Japan, LLC) at the prescribed concentration to prepare a solution. The obtained solution was admixed with artificial feed (Insecta LFS (manufactured by Nosan Corporation)) as shown in Tables 1 to 6 so that the content of the dried Btk culture or Bta culture was 0.2 to 2 mg/g of the artificial feed and the content of prumycin hydrochloride or kanosamine hydrochloride was 2 μg/g of the artificial feed. The artificial feed containing the dried Btk culture or dried Bta culture mixed with prumycin hydrochloride or kanosamine hydrochloride was placed on a petri dish (90 mm in diameter and 15 mm in height), and ten 3rd instar larvae of Spodoptera litura reared in a rearing room at 25° C. were released into the petri dish (triplicate). Each petri dish was closed and kept at 25° C. for 5 days.
The number of dead insects was then macroscopically counted by observing the inside of the petri dish, and the (measured) insecticidal rate (%) of the number of dead insects to the total number of reared insects was determined.
In addition, the suspension of dried Btk culture alone, the suspension of dried Bta alone, prumycin hydrochloride alone, kanosamine hydrochloride alone, or a combination of prumycin hydrochloride and kanosamine hydrochloride was added to the artificial feed to achieve the application concentration per g of the artificial feed as shown in Tables 1 to 6. Except the above, ten 3rd instar larvae of Spodoptera litura were released into a petri dish (triplicate) and kept at 25° ° C. for 5 days, as in the above Example.
The inside of the petri dish was then observed and the (measured) insecticidal rate (%) was determined in the same way as in the above Example.
The expected theoretical insecticidal rate (%) when treated with the dried Btk culture or dried Bta culture mixed with prumycin hydrochloride or kanosamine hydrochloride was determined by Colby's calculation formula ([…]). […]
The presence or absence of synergistic effect was determined by comparing the theoretical and measured insecticidal rates (%) in the case of using the dried Btk culture or dried Bta culture in combination with prumycin hydrochloride or kanosamine hydrochloride.
Specifically, the case where the measured value was larger than the theoretical value was judged as “having a synergistic effect”, and the case where the measured value was equal to or smaller than the theoretical value was judged as “having no synergetic effect” with respect to the insecticidal rate (%).

The test system is the same in assay [3]. To be noted: for insecticidal efficacy against the 3rd instar larvae of Spodoptera litura (in words): hydrochloride alone; for Number of dead insects/Number of test insects: hydrochloride alone 10 μg/g Feed, insecticidal protein Absent, 5 days. The method, then: Each artificial feed containing or free of each substance thus obtained was placed on a petri dish (90 mm in diameter and 15 mm in height), and ten 3rd instar larva of Spodoptera litura reared in a rearing room at 25° C. were released into each petri dish (3 replicates). Each petri dish was closed and kept at 25° C. for 5 days.
After that, the number of dead insects was macroscopically counted by observing the inside of the petri dish. The LC50 values were calculated by the probit method, and the increase in insecticidal activity due to the addition of prumycin or kanosamine was calculated based on the same formula as in Test Example 4 above.

Setting [4] is: hydrochloride alone 10 μg/g Feed, insecticidal protein Absent.

Where a name gives a salt, the structure may show the parent alone. Read-outs that look alike come from different tables or passages of the source.

On to `CC(N)C(=O)NC1COC(O)C(N)C1O` [Prumycin hydrochloride, 4-N-D-alanyl-2,4-diamino-2,4-dideoxyarabinose], for which the “insecticidal efficacy against the 3rd instar larvae of Helicoverpa armigera (in words)” value in assay [1] is listed as “no insecticidal efficacy”. For the same molecule, the “Number of dead insects/Number of test insects” value in assay [1] (setting [4]) and in assay [3] was 0/10 throughout. Also, in assay [2], the “Measured insecticidal rate (%)” value stood at 0.0%. Moreover, the “insecticidal efficacy against the 3rd instar larvae of Spodoptera litura (in words)” value in assay [2] and in assay [3] was “no insecticidal efficacy” throughout.

In the case of `N[C@H]1[C@H](O)[C@@H](CO)OC(O)[C@@H]1O` (stereo partly drawn) [Kanosamine hydrochloride, 3-amino-3-deoxy-D-glucopyranose], in assay [1], the “insecticidal efficacy against the 3rd instar larvae of Helicoverpa armigera (in words)” value is given as “no insecticidal efficacy”. The “Number of dead insects/Number of test insects” value in assay [1] (setting [4]) is given as 0/10. Moreover, in assay [2], the “Measured insecticidal rate (%)” value is given as 0.0% and the “insecticidal efficacy against the 3rd instar larvae of Spodoptera litura (in words)” value was “no insecticidal efficacy”. In assay [3], the “insecticidal efficacy against the 3rd instar larvae of Spodoptera litura (in words)” value is “no insecticidal efficacy” and the “Number of dead insects/Number of test insects” value was 0/10.

Consider “Cry1A(c): Bacillus thuringiensis insecticidal protein expressed and purified in E. coli”, for which the “Number of dead insects/Number of test insects” value in assay [1] (insecticidal protein alone 0.063 μg/g Feed) is listed as 0/10; in assay [1] (insecticidal protein alone 0.125 μg/g Feed), 0/10; in assay [1] (insecticidal protein alone 0.25 μg/g Feed), 0/10; in assay [1] (insecticidal protein alone 0.5 μg/g Feed), 1/10; in assay [1] (insecticidal protein alone 1 μg/g Feed), 6/10; in assay [1] (insecticidal protein alone 2 μg/g Feed), 7/10.

The values above are taken from patent publication US20240245057A1, “INSECTICIDAL COMPOSITION FOR AGRICULTURAL OR HORTICULTURAL USE AND METHOD OF CONTROLLING AGRICULTURAL OR HORTICULTURAL PEST” (SDS BIOTECH K.K, priority 2021, published 2024).
